From patent publication US10087165B2, “Fluoroquinolones and use thereof to treat bacterial infections” (UNIVERSITÉ PIERRE ET MARIE CURIE—PARIS 6 (UPMC), priority 2014, dated 2018)
≈ marks a conversion by molar mass, not a printed value. Like-named read-outs stand apart in the source and are kept apart here.

Legend:
[1] = molecular target: M. tuberculosis DNA gyrase (Mycobacterium tuberculosis, UniProt P9WG45+P9WG47); experiment: biochemical
[2] = Acute toxicity in healthy female CD-1 mice after a single oral treatment; assay type: in vivo
Description: The aim of this study was to evaluate the acute toxicity of two new compounds (Quin 18 and Quin 19) in healthy female CD-1 after a single oral treatment at D0.
Toxicity of treatment was evaluated by monitoring of animals (general signs of pharmacologic and toxicity effects, morbidity, mortality and evident signs of toxicity, as well as twice-weekly monitoring for clinical signs and body weight) until the end of the experiment (D14). At the end of the experiment, animals were sacrificed and macroscopic autopsy was performed.
Mice of each group were administered by per os (PO) injection at 10 ml/kg according to the standard operating procedure No. TEC-078. The recommended volume for per os (PO) administration in mice is 10 ml/kg.
Morbidity, mortality and evident signs of toxicity of mice were considered daily from D0 until the end of the experiment (D14 or D15).
Monitoring of mice for detailed behavioral and clinical observations was performed twice a week from D0 until the end of the experiment (D14 or D15) according to the standard operating procedures No. TEC-192.
Body weight of mice was monitored at D1, D2 and then twice a week until the end of the experiment (D14 or D15) according to the standard operating procedures No. TEC-108. Weight loss was assessed against the starting weight of each mouse at D0.
During the course of the experiment, animals were sacrificed if any of the following occurs: • Signs of suffering (cachexia, weakening, difficulty to move or to eat), • Compound toxicity (hunching, convulsions), • 25% body weight loss on any day. Sacrifice of Animals
At D14 or D15, animals were be sacrificed by CO2 inhalation and a macroscopic autopsy was performed.

[3] = assay type: physicochemical
Description: A solubility assay was performed on both Quin 18 and Quin 19 in appropriated vehicles for per os injection into mice to obtain a fine suspension at maximal concentration (MC) of each compound. The solubility of each compound in each vehicle was evaluated by observation of potential precipitate.

M. tuberculosis H37Rv = experiment: microbe, parasite or virus in culture; assay type: cell-based; conditions: for MIC: Mycobacterium tuberculosis
[4] = tested on: M. tuberculosis H37Rv strain; experiment: Minimal effective dosage in the murine TB model; assay type: in vivo, Balb/C/J female mice; set-up: Mice weight: unit not given here; conditions: for Mice weight / Spleen weight / Survival: No. death: Gavage; for Survival: No. death: 10 mice
Description: Four-week-old Balb/C/J female mice were infected intravenously with 10^6 CFU of M. tuberculosis H37Rv strain. On the day following the infection (D1), 10 mice were sacrificed to determine the exact baseline values of spleen weight and CFU counts in the lungs. The remaining mice were allocated to the following treatment groups: an untreated negative control group for survival monitoring, a positive control group treated for 1 month with isoniazid (INH) 25 mg/kg/d, […] test groups were treated with Quin18 and Quin19 at increasing dosages (25 mg/kg/d; 50 mg/kg/d; 100 mg/kg/d; 150 mg/kg/d) given by oral gavage, and two additional test groups were treated intravenously with Quin18 25 mg/kg/d and 100 mg/kg/d. All the groups contained 10 mice and were treated from D1 to D28, 5 days a week. The parameters used for assessing the severity of infection and the effectiveness of treatments were survival rate, spleen weight, gross lung lesions and CFU counts in the lungs.
The minimal effective dosage was defined as the minimal dosage able to prevent mortality of the mice, spleen enlargement and the occurrence of gross lung lesions. CFU counts were considered to be a more precise way of determining the dose-ranging efficacy of Quin18 and Quin19.
Survival rates between groups were plotted on a Kaplan-Meier curve and compared using the log-rank test.

Sequence of M. tuberculosis DNA gyrase (P9WG47 whole entry): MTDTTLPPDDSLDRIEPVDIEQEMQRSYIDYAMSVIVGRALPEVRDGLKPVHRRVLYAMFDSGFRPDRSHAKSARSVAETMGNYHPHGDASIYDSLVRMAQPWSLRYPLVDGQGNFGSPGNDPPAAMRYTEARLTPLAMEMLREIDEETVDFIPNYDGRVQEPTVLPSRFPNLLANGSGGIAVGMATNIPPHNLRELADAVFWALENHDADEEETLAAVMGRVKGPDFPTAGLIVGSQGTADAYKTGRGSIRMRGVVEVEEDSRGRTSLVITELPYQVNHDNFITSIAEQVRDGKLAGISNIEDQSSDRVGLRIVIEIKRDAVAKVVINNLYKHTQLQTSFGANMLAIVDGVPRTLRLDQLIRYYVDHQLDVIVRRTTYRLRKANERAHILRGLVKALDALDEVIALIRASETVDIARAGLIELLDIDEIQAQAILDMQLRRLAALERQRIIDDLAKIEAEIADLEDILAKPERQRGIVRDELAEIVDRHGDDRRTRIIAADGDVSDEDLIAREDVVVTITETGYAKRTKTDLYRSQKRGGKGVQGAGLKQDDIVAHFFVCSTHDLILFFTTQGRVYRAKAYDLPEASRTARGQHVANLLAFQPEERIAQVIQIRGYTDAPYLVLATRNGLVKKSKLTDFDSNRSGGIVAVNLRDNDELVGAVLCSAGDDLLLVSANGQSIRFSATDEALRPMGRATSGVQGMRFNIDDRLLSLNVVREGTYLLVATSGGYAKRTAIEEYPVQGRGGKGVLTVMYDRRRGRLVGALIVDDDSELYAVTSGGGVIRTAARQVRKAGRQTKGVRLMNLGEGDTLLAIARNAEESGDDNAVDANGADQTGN
Sequence of M. tuberculosis DNA gyrase (P9WG45 whole entry): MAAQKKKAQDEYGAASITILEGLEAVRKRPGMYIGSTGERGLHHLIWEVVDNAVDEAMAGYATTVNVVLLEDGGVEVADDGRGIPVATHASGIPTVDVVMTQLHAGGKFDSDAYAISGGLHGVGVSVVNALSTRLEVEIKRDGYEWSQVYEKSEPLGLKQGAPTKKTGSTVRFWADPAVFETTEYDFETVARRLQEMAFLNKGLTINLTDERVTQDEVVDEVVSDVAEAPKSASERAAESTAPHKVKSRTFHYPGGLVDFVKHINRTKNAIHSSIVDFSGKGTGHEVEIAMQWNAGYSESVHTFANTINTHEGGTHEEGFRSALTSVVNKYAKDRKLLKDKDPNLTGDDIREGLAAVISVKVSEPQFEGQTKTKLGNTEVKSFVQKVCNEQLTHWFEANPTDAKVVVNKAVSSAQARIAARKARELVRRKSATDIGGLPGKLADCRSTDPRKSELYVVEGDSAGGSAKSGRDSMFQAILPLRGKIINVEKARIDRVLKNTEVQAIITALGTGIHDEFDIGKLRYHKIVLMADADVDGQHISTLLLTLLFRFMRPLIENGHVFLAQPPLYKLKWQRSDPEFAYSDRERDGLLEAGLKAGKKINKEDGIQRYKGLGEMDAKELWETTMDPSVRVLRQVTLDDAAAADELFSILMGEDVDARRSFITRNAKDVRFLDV

CCCCCCCCCCN1CCN(c2c(F)cc3c(=O)c(C(=O)O)cn(C4CC4)c3c2OC)CC1 [Quin 19, 1-cyclopropyl-7-(4-decylpiperazin-1-yl)-6-fluoro-8-methoxy-4-oxo-1,4-dihydroquinoline-3-carboxylic acid]
IC50 [1]: 150 µM | Loss of body weight (in words) ([2]; Group B1: 100 mg/kg PO Q1Dx1): did not exhibited any loss of body weight | Tolerance (in words) ([2]; Group B1: 100 mg/kg PO Q1Dx1, corn oil, with sonication): well tolerated | Mean body weight (MBW) ([2]; Group B1: 100 mg/kg PO Q1Dx1, with sonication, D1): 29.73 ± 0.83 g | Mean body weight (MBW) ([2]; Group B1: 100 mg/kg PO Q1Dx1, with sonication, D2): 29.9 ± 0.2 g | Mean body weight (MBW) ([2]; Group B1: 100 mg/kg PO Q1Dx1, with sonication, D3): 30.23 ± 0.4 g | Mean body weight (MBW) ([2]; Group B1: 100 mg/kg PO Q1Dx1, with sonication, D4): 30.5 ± 0.98 g | Mean body weight (MBW) ([2]; Group B1: 100 mg/kg PO Q1Dx1, with sonication, D7): 31.2 ± 0.1 g | Mean body weight (MBW) ([2]; Group B1: 100 mg/kg PO Q1Dx1, with sonication, D11): 32.17 ± 1.36 g | Mean body weight (MBW) ([2]; Group B1: 100 mg/kg PO Q1Dx1, with sonication, D14): 31.4 ± 0.44 g | Macroscopic autopsy: Observations ([2]; Group B1: 100 mg/kg PO Q1Dx1, *one mouse had air bubble in the caecum): NTR* | Mean body weight (MBW) ([2]; Group B1: corn oil, 10 mg/ml with sonication, 100 mg/kg PO Q1Dx1, D0, 100 mg/kg): 31.67 ± 2.25 g | Loss of body weight (in words) ([2]; Group B2: 200 mg/kg PO Q1Dx1): did not exhibited any loss of body weight | Tolerance (in words) ([2]; Group B2: 200 mg/kg PO Q1Dx1, corn oil, with sonication): well tolerated | Mean body weight (MBW) ([2]; Group B2: 200 mg/kg PO Q1Dx1, with sonication, D1): 30.97 ± 0.4 g | Mean body weight (MBW) ([2]; Group B2: 200 mg/kg PO Q1Dx1, with sonication, D2): 30.93 ± 0.25 g | Mean body weight (MBW) ([2]; Group B2: 200 mg/kg PO Q1Dx1, with sonication, D3): 30.3 ± 0.85 g | Mean body weight (MBW) ([2]; Group B2: 200 mg/kg PO Q1Dx1, with sonication, D7): 31.6 ± 1.97 g | Mean body weight (MBW) ([2]; Group B2: 200 mg/kg PO Q1Dx1, with sonication, D10): 32.1 ± 3.2 g | Mean body weight (MBW) ([2]; Group B2: 200 mg/kg PO Q1Dx1, with sonication, D14): 31.9 ± 1.15 g | Macroscopic autopsy: Observations ([2]; Group B2: 200 mg/kg PO Q1Dx1, sacrifice at end of study): NTR | Mean body weight (MBW) ([2]; Group B2: corn oil, 20 mg/ml with sonication, 200 mg/kg PO Q1Dx1, D0, 200 mg/kg): 30.67 ± 0.21 g | Loss of body weight (in words) ([2]; Group B3: 200 mg/kg PO Q1Dx1): did not exhibited any loss of body weight | Tolerance (in words) ([2]; Group B3: 200 mg/kg PO Q1Dx1, corn oil, without sonication): well tolerated | Mean body weight (MBW) ([2]; Group B3: 200 mg/kg PO Q1Dx1, without sonication, D1): 32.73 ± 1.46 g | Mean body weight (MBW) ([2]; Group B3: 200 mg/kg PO Q1Dx1, without sonication, D2): 32.5 ± 0.62 g | Mean body weight (MBW) ([2]; Group B3: 200 mg/kg PO Q1Dx1, without sonication, D4): 31.73 ± 0.9 g | Mean body weight (MBW) ([2]; Group B3: 200 mg/kg PO Q1Dx1, without sonication, D7): 32.2 ± 0.5 g | Mean body weight (MBW) ([2]; Group B3: 200 mg/kg PO Q1Dx1, without sonication, D11): 34.1 ± 1.51 g | Mean body weight (MBW) ([2]; Group B3: 200 mg/kg PO Q1Dx1, without sonication, D15): 35.43 ± 1.99 g | Macroscopic autopsy: Observations ([2]; Group B3: 200 mg/kg PO Q1Dx1, sacrifice at end of study): NTR | Mean body weight (MBW) ([2]; Group B3: corn oil, 20 mg/ml without sonication, 200 mg/kg PO Q1Dx1, D0, 200 mg/kg): 33.6 ± 2.11 g | Loss of body weight (in words) ([2]; Group B4: 400 mg/kg PO 2Q1Dx1): did not exhibited any loss of body weight | Tolerance (in words) ([2]; Group B4: 400 mg/kg PO 2Q1Dx1, corn oil, without sonication): well tolerated | Mean body weight (MBW) ([2]; Group B4: 400 mg/kg PO 2Q1Dx1, without sonication, D1): 30.47 ± 2.2 g | Mean body weight (MBW) ([2]; Group B4: 400 mg/kg PO 2Q1Dx1, without sonication, D2): 30.47 ± 1.3 g | Mean body weight (MBW) ([2]; Group B4: 400 mg/kg PO 2Q1Dx1, without sonication, D5): 31.03 ± 1.55 g | Mean body weight (MBW) ([2]; Group B4: 400 mg/kg PO 2Q1Dx1, without sonication, D9): 31.77 ± 2.32 g | Mean body weight (MBW) ([2]; Group B4: 400 mg/kg PO 2Q1Dx1, without sonication, D13): 31.7 ± 1.18 g | Mean body weight (MBW) ([2]; Group B4: 400 mg/kg PO 2Q1Dx1, without sonication, D14): 32.53 ± 1 g | Macroscopic autopsy: Observations ([2]; Group B4: 400 mg/kg PO 2Q1Dx1, sacrifice at end of study): NTR | Mean body weight (MBW) ([2]; Group B4: corn oil, 20 mg/ml without sonication, 400 mg/kg PO 2Q1Dx1 (2 hours between the 2 injections), D0, 400 mg/kg): 31.03 ± 1.86 g | Autopsy, macroscopic observations (in words) ([2]; all treated groups): No particular sign was observed | Dose up to which well tolerated (maximal solubility) ([2]; in corn oil, PO, female mice): up to 400 mg/kg | Signs of toxicity at the dose levels tested (in words) ([2]; mice): no signs of toxicity | Excipient allowing the best solubilisation [3]: corn oil | antibacterial activity against wild-type M. tuberculosis strain (in words) (M. tuberculosis H37Rv; H37Rv): high antibacterial activity | MIC (M. tuberculosis H37Rv; H37RV, Table 3, read-out: MIC M. tuberculosis H37Rv): < 0.12 µM | MIC (M. tuberculosis H37Rv; H37Rv, Table 2, read-out: MIC (M. tuberculosis) WT): 0.25 µM (≈ 0.125 µg/mL) | Mice weight ([4]; 25 mg/kg/j): 19.3 ± 2.6 | Spleen weight ([4]; 25 mg/kg/j): 332 ± 141.1 mg | Survival: No. death ([4]; 25 mg/kg/j, D1 to D28, 5 days a week): 1 | Mice weight ([4]; 50 mg/kg/j): 18 ± 3.4 | Spleen weight ([4]; 50 mg/kg/j): 305.6 ± 181.5 mg | Survival: No. death ([4]; 50 mg/kg/j): 2 | Mice weight ([4]; 100 mg/kg/j): 20.2 ± 1.3 | Spleen weight ([4]; 100 mg/kg/j): 253 ± 127.2 mg | Survival: No. death ([4]; 100 mg/kg/j): 0 | Mice weight ([4]; 150 mg/kg/j): 20.7 ± 0.8 | Spleen weight ([4]; 150 mg/kg/j): 222 ± 106.2 mg | Survival: No. death ([4]; 150 mg/kg/j): 0 | Efficacy in a mouse model of tuberculosis (in words) ([4]; given orally): outstanding efficacy | Survival compared with untreated group (in words) ([4]; whatever the dosage (25, 50, 100 and 150 mg/kg/d) and the administration route): statistically superior to untreated group
